According to paper PMC9780064, “Structural analysis of cannabinoids against EGFR-TK leads a novel target against EGFR-driven cell lines” (Current Research in Pharmacology and Drug Discovery, 2022):

Assays:
[1] = molecular target: T1, EGFR-TK (tyrosine kinase domain of EGFR) (Homo sapiens, UniProt P00533); assay: SPR (OpenSPR), immobilised EGFR-TK, […] Langmuir kinetic fit; type: binding
T1 construct: cloned into pCold I, expressed in E. coli Rosetta (DE3); DEAE, Resource Q and Superdex 200 purification; immobilised by amine coupling for SPR
T1 sequence (P00533 696-1022 limits assumed): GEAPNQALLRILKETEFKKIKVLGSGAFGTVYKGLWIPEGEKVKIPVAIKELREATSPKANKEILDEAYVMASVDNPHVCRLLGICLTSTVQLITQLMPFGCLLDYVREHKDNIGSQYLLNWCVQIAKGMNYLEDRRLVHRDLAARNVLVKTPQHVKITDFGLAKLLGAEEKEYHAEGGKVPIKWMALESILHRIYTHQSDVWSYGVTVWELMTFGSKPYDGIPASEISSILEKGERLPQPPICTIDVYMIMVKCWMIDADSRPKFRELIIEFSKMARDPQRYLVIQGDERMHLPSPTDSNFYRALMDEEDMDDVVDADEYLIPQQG

[2] = molecular target: T1, EGFR-TK (tyrosine kinase domain of EGFR); assay: ADP-Glo kinase assay, poly(Glu:Tyr) substrate; type: biochemical; conditions: read-out: EGFR-TK inhibition IC50

Structure (SMILES) | Kd [1] [nM] | IC50 [2] [nM]
C=C(C)[C@@H]1CCC(C)=C[C@H]1c1c(O)cc(CCCCC)cc1O [CBD] | 8350 | 32.6 ± 3.16
CCCCCc1cc(O)c(C/C=C(\C)CCC=C(C)C)c(O)c1 [CBG] | 5610 | 29.9 ± 2.1
CCCCCc1cc(O)c2c(c1)OC(C)(C)c1ccc(C)cc1-2 [CBN] | 32100 | 78.8 ± 2.2
